Results taken from US20080039434A1, “Treatment of Interstitial Cystitis with Vitamin D Compounds” (BioXell S. p.A., priority 2004, published 2008).

What was measured:
[1] = system: ovalbumin-challenged mouse bladder; experiment: Blind histological analysis of bladder sections, allergic IC in mice; format: in vivo; details: p<0.05; for number of LMPC in the bladder wall: oral ug/kg: E 0.3, I 3, vs vehicle
Description: (§1) Mice (BALB/c, females 8 weeks old, weight 18-20 g, Charles River, Calco ITA) were sensitized by injecting 10 ug/mouse of chicken ovalbumin from Sigma (OVA, grade V) in the presence of 4 mg of alum (SERVA, Germany) by intraperitoneal injection, once a week for 4 weeks. This induces a sustained level of IgE detectable in serum.
(§2) One or two weeks after the last immunization boost, sensitized mice were anesthetized (1.5% Isoflurane) and then trans-urethrally catheterized (24 gauge, ¾ in.; Angiocath, Becton-Dickson). Slight digital pressure was applied the lower abdomen to drain the urine.
(§3) The urinary bladders were instilled with either 150 ul of either saline or OVA alone, (1 mg/150 ul) infused at a slow rate to avoid trauma and vesico-ureteral reflux and repeated twice within a 30-min interval with the syringe kept in place on the catheter for at least 30 min. Intravesical challenge was repeated 7-10 days after the first one with the same procedure.
(§4) An ethanol stock solution of Compound B (1 mg/ml) was dissolved in Miglyol vehicle at the appropriate concentration. Control animals received the vehicle containing the same amount of ethanol. Drug (or vehicle) treatment was carried out by daily gavage after weighing the animal. Drug solution was prepared calculating a final volume of 100 ul/10 grams body weight, and treatment was started on the day of the first intravesical ovalbumin challenge, maintained daily, but discontinued over the weekends, for 12 days total treatment. FIG. 7 illustrates the timeline of the experiment.
Bladders were explanted from the animals, longitudinally divided in two moieties, one half was either immediately fixed in formalin (10% buffered) for at least 3 hrs or snap frozen in liquid nitrogen upon inclusion in OCT freezing medium (Tissue-Tek Sakura). For histological analysis, fixed bladders were further processed and finally paraffin embedded. Five um sections were serially cut then stained with GIEMSA (BDH, 20% solution, 3 hrs RT) and then de-stained in 0.1% acetic acid for 10 sec. After a clarification step in Xylene, slides were permanently mounted with Eukitt medium and analyzed by a pathologist in a blinded fashion in order to evaluate for inflammatory cell infiltrate, mast cell numbers, and the presence of interstitial edema. A semi-quantitative histological score was used, assigning: 1 for mild infiltrate, no edema; 2 for intermediate infiltration, little edema; and 3 for severe infiltration and edema.
(§5) Experiments in Example 7 were performed according to the general procedures described previously in Example 6. Mice were challenged with saline (untreated) or ovalbumin (treatment with vehicle or one of Compounds C-I at a dosage indicated in Table 6 in ug/kg).

[2] = Calcemia assessment in allergic IC mice (colorimetric serum calcium assay); format: in vivo, mouse; details: oral ug/kg: C 3, A 0.1, E 0.3, F 30, G 100, H 1, I 3; elevations p<0.001
Description: Serum calcemia was evaluated by a commercially available colorimetric assay (Calcium Dry-Fast, Sentinel CH. Italy). Briefly, 10 ul serum were added to 100 ul reaction solution prepared according to the manufacturer's procedure in a 96-wells plate. After 5 min incubation at RT samples were read at 570 nm with a spectrophotometer and the calcium levels were calculated in triplicate by using a standard reference as directed.

IL-13 = experiment: Taq-Man analysis of bladder mRNA, allergic IC in mice: IL-13; format: in vivo, mouse; details: ovalbumin challenged vs vehicle; oral ug/kg: E 0.3, F 30, H 1, I 3; H, I p<0.05, E, F p<0.001
Description: as §1, §2, §3, §4
(§6) Total RNA was extracted from one half of bladder by using RNeasy Mini kit (Qiagen), treated with DNase 1 (Qiagen) and reverse transcription performed with Reverse Transcription Reagent (Applied Biosystems) with Random Hexamers (according to the manufacturer's instructions). cDNA was synthesized from 1 ug of RNA. Real-Time PCR was performed in 96-well optical reaction plates (Applied Biosystems). For each sample we amplified both the target gene and the housekeeping gene (HPRT) in different wells (singleplex) and in duplicate. The amplification Master Mix was prepared according to the following protocol (volumes refer to a single well with a final volume of 40 ul/well)): 2× TaqMan® R Universal PCR Master Mix (Applied Biosystems, 4304437): 20 ul; 20× Assay target gene: 2 ul; H2O: 8 ul; cDNA: 10 ul. Reaction was run on an SDS 7000 (Applied Biosystems) instruments, with the following amplification program: 2′ at 50° C.; 10′ at 95° C.; 15″ at 95° C. and 1′ at 60° C. for 40 cycles; Cycle threshold (Ct) values were exported into Excel Worksheets for analysis and relative quantitations were performed using the ΔCt method. All primers used carried the FAM reporter.
as §5

MMCP4 = experiment: Taq-Man analysis of bladder mRNA, allergic IC in mice: MMCP4; format: in vivo, mouse; details: ovalbumin challenged vs vehicle; oral ug/kg: E 0.3, F 30, H 1, I 3; H, I p<0.05, E, F p<0.001
Description: as §1, §2, §3, §4, §6, §5

[3] = system: allergen-induced chronic bladder inflammation; experiment: Efficacy ranking in the allergen-induced chronic bladder inflammation model of interstitial cystitis; format: in vivo, mouse; details: each compound at its tested dosage
Description: as §5
Summarizing all the results presented above in Example 7, we can conclude that these compounds can be ranked with respect to their efficacy in reducing several parameters measuring inflammation of the bladder in the allergen-induced chronic bladder inflammation model of interstitial cystitis.

[4] = system: patients with interstitial cystitis; details: oral administration, long term basis; cited from earlier work
MMCP1 protein = experiment: Serum level of mast-cell derived chymase MMCP1 protein, allergic IC in mice; format: in vivo, mouse; details: ovalbumin challenged vs vehicle; oral ug/kg: A 0.1, E 0.3, F 30; F p<0.05, A, E p<0.001
Description: as §1, §2, §3
Treatment Group: 10 mice were treated with oral vitamin D3 analogue (1-alpha-fluoro-25-hydroxy-16,23Ediene-26,27-bishomo-20-epi-cholecalciferol) Compound “B” for 14 days (daily dose of either 30 or 75 ug/kg).
as §4, §5

FcεR1α = experiment: Taq-Man analysis of bladder mRNA, allergic IC in mice: FcεR1α; format: in vivo, mouse; details: ovalbumin challenged vs vehicle; oral ug/kg: E 0.3, F 30, H 1; E, H p<0.05, F p<0.001
Description: as §1, §2, §3, §4, §6, §5

BPH cells = details: previously found; cited from earlier work

Molecule	numbers of mast cells in the bladder wall ([1]; 3 ug/kg oral vs vehicle)	serum calcium levels relative to the vehicle treated control group [2]	mRNA expression level of the IL-13 gene (IL-13)	mRNA expression level of MMCP4 gene (MMCP4)	number of LMPC in the bladder wall [1]	Efficacy ranking in reducing parameters of bladder inflammation [3]	patients who show a beneficial effect [4]	serum level of the MMCP1 protein (MMCP1 protein)	mRNA expression level of the FcεR1α gene (FcεR1α)	BPH cell proliferation (BPH cells)	mitogenic activity of growth factors KGF and IGF1 for BPH cells (BPH cells)
CC(=O)OC1C/C(=C/C=C2\CCC[C@]3(C)C(C(C)CCCC(C)(C)O)=CCC23)C[C@@H](OC(C)=O)C1 (stereo partly shown) [Compound C, 1,3-Di-O-acetyl-1,25-dihydroxy-16-ene-19-nor-cholecalciferol]	significantly reduced numbers	slight elevation	–	–	–	–	–	–	–	–	–
CC(C)(O)CCCC(CCCC(C)(C)O)[C@H]1CC[C@H]2/C(=C/C=C3C[C@@H](O)C[C@H](O)C3)CCC[C@]12C [Compound I, 1,25-dihydroxy-21-(3-hydroxy-3-methylbutyl)-19-nor-cholecalciferol]	–	slight elevation	statistically significant reductions	statistically significant reductions	significant reduction	Compound E>Compound F>Compound B>Compound H>Compound I>Compound A>Compound A=Compound G	–	–	–	–	–
pentosan polysulphate sodium [PPS]	–	–	–	–	–	–	less than 20%	–	–	–	–
C=C1/C(=C\C=C2/CCC[C@@]3(C)C2CCC3C2(CCCC(C)(C)O)CC2)CC(OC(C)=O)C[C@@H]1OC(C)=O (stereo partly shown) [Compound F, 1,3-Di-O-acetyl-1,25-dihydroxy-20-cyclopropyl-cholecalciferol]	–	slight elevation	statistically significant reductions	statistically significant reductions	–	Compound E>Compound F>Compound B>Compound H>Compound I>Compound A>Compound A=Compound G	–	statistically significant reduction	statistically significant reductions	–	–
C=C1CC[C@H](O)C/C1=C/C=C1\CCC[C@]2(C)[C@@H]([C@H](C)CCCC(C)C)CC[C@@H]12 [vitamin D3]	–	–	–	–	–	–	–	–	–	inhibited	counteracted
C=C1/C(=C\C=C2/CCC[C@]3(C)C(C4(CCCC(C)(C)O)CC4)=CCC23)CC(O)C[C@@H]1O (stereo partly drawn) [Compound H, 1α,25-Dihydroxy-16-ene-20-cyclopropyl-cholecalciferol]	–	slight elevation	statistically significant reductions	statistically significant reductions	–	Compound E>Compound F>Compound B>Compound H>Compound I>Compound A>Compound A=Compound G	–	–	statistically significant reductions	–	–
CC(=O)OC1C/C(=C/C=C2\CCC[C@@]3(C)C2CCC3C2(C/C=C/C(O)(C(F)(F)F)C(F)(F)F)CC2)C[C@@H](OC(C)=O)C1 (stereo partly shown) [Compound E, 1,3-Di-O-acetyl-1,25-dihydroxy-20-cyclopropyl-23E-ene-26,27-hexafluoro-19-nor-cholecalciferol]	–	slight elevation	statistically significant reductions	statistically significant reductions	significant reduction	Compound E>Compound F>Compound B>Compound H>Compound I>Compound A>Compound A=Compound G	–	statistically significant reduction	statistically significant reductions	–	–
